Experimental data reported in patent US6340687B1, “Substituted tetrahydro-pyrimidine-2(1H)-thione HDL-C elevators useful as antiatherosclerotic agents” (American Home Products Corporation, priority 1997, dated 2002).

Key:
HDL cholesterol = assay: in vivo standard pharmacological test procedure measuring elevation of HDL cholesterol levels in cholesterol/cholic acid-fed rats; design: species or system Male Sprague-Dawley rats; conditions: serum, eight days of treatment; for change in vivo at 100 mg/kg / HDL Cholesterol Level Increase (%): dose 100 mg/kg mixed in diet; for change in vivo at 50 mg/kg: dose 50 mg/kg mixed in diet
Procedure: Representative compounds of this invention were evaluated in an in vivo standard pharmacological test procedure which measured the ability of the compounds of this invention to elevate HDL cholesterol levels. The following briefly describes the procedure used and results obtained. Male Sprague-Dawley rats weighing 200-225 g were housed two per cage and fed Purina Rodent Chow Special Mix 5001-S supplemented with 0.25% cholic acid and 1.0% cholesterol and water ad libitum for 8 days. Each test substance was administered to a group of six rats fed the same diet with the test diet mixed in as 0.005-0.1% of the total diet. Body weight and food consumption were recorded prior to diet administration and at termination. Typical doses of the test substances were 5-100 mg/kg/day.
At termination, blood was collected from anesthetized rats and the serum was separated by centrifugation. Total serum cholesterol was assayed using the Sigma Diagnostics enzymatic kit for the determination of cholesterol, Procedure No. 352, modified for use with ninety-six well microtiter plates. After reconstitutiton with water the reagent contains 300 U/l cholesterol oxidase, 100 U/l cholesterol esterase, 1000 U/l horse radish peroxidase, 0.3 mmol/l 4-aminoantipyrine and 30.0 mmol/l p-hydroxybenzene sulfonate in a pH 6.5 buffer. In the reaction cholesterol was oxidized to produce hydrogen peroxide which was used to form a quinoneimine dye. The concentration of dye formed was measured spectrophotometrically by absorbance at 490 nm after incubation at 25° C. for 30 minutes. The concentration of cholesterol was determined for each serum sample relative to a commercial standard from Sigma.
HDL cholesterol concentrations in serum were determined by separation of lipoprotein classes by fast protein liquid chromatography (FPLC) by a modification of the method of Kieft et al., (J. Lipid Res., 32, 859-866 (1991). Using this methodology, […] of serum was injected onto Superose 12 and Superose 6 (Pharmacia), in series, with a column buffer of 0.05 M Tris (2-amino-2-hydroxymethyl-1,3-propanediol) and 0.15 M sodium chloride at a flow rate of 0.5 mL/min. The eluted sample was mixed on line with Boehringer-Mannheim cholesterol reagent pumped at 0.2 mL/min. The combined eluents were mixed and incubated on line through a knitted coil (Applied Biosciences) maintained at a temperature of 45° C. The eluent was monitored by measuring absorbance at 490 nm and gives a continuous absorbance signal proportional to the cholesterol concentration. The relative concentration for each lipoprotein class was calculated as the percent of total absorbance. HDL cholesterol concentration in serum was calculated as the percent of total cholesterol as determined by FPLC multiplied by the total serum cholesterol concentration.
In Examples 5-7, 9, 10 and 12-20 the test compounds were administered at a dose of 100 mg/kg. In Examples 1, 2, 3 and 11, the test compounds were administered at a dose of 50 mg/kg. In Example 4, the test compound was administered at a dose of 46 mg/kg and in Example 8 at a dose of 90 mg/kg. The duration of treatment for all examples was eight days.

[1] = Rattus norvegicus, feed or water, 192 h, read-out: HDL Cholesterol Level Increase (%)

| melting point [°C] | Structure (SMILES) | change in vivo at 100 mg/kg (HDL cholesterol; [1]) [%] | other results |
| --- | --- | --- | --- |
| 88 to 90 | CCN1CCCN(c2c(C)cccc2Cl)C1=S [Example 16, 1-(6-Chloro-2-methyl-phenyl)-3-ethyl-3,4,5,6-tetrahydro-pyrimidine-2(1H)-thione] | 85 | – |
| 152 to 154 | Cc1ccc(Cl)cc1N1CCCN(C2CCC2)C1=S [Example 19, 1-(5-Chloro-2-methyl-phenyl)-3-cyclobutyl-3,4,5,6-tetrahydro-pyrimidine-2(1H)-thione] | 37 | – |
| 82 to 84 | C=CCN1CCCN(c2c(C)cccc2Cl)C1=S [Example 12, 3-Allyl-1-(6-chloro-2-methyl-phenyl)-3,4,5,6-tetrahydro-pyrimidine-2(1H)-thione] | 19 | – |
| 119 to 121 | Cc1cccc(Cl)c1N1CCCN(CC(C)C)C1=S [Example 20, 1-(6-Chloro-2-methyl-phenyl)-3-isobutyl-3,4,5,6-tetrahydro-pyrimidine-2(1H)-thione] | 24 | – |
| 135 to 136 | Cc1cccc(Cl)c1N1CCCN(C(C)C)C1=S [Example 15, 1-(6-Chloro-2-methyl-phenyl)-3-isopropyl-3,4,5,6-tetrahydro-pyrimidine-2(1H)-thione] | 86 | – |
| 89 to 91 | Cc1cccc(Cl)c1N1CCCN(C2CCC2)C1=S [Example 18, 1-(6-Chloro-2-methyl-phenyl)-3-cyclobutyl-3,4,5,6-tetrahydro-pyrimidine-2(1H)-thione] | 42 | – |
| 88 to 90 | Cc1cc(Cl)ccc1N1CCCN(CC(C)C)C1=S [Example 17, 1-(4-Chloro-2-methyl-phenyl)-3-isobutyl-3,4,5,6-tetrahydro-pyrimidine-2(1H)-thione] | 12 | – |
| 164 to 165 | Cc1cccc(Cl)c1N1CCCN(C)C1=S [Example 13, 1-(6-Chloro-2-methyl-phenyl)-3-methyl-3,4,5,6-tetrahydro-pyrimidine-2(1H)-thione] | 81 | – |

Further lines, the molecule ahead of its results:

| Structure (SMILES) | melting point [°C] | change in vivo at 100 mg/kg (HDL cholesterol; [1]) [%] | other results |
| --- | --- | --- | --- |
| Cc1cc(Cl)ccc1N1CCCNC1=S [Example 1, 1-(4-Chloro-2-methyl-phenyl)-3,4,5,6-tetrahydro-pyrimidine-2(1H)-thione] | 266 to 268 | – | change in vivo at 50 mg/kg (HDL cholesterol; [1]): 86% |
| Cc1ccc(Cl)cc1N1CCCN(C)C1=S [Example 9, 1-(5-Chloro-2-methyl-phenyl)-3-methyl-3,4,5,6-tetrahydro-pyrimidine-2(1H)-thione] | 143 to 145 | 143 | – |
| Cc1ccc(Cl)cc1N1CCCN(C(C)C)C1=S [Example 6, 1-(5-Chloro-2-methyl-phenyl)-3-isopropyl-3,4,5,6-tetrahydro-pyrimidine-2(1H)-thione] | 176 to 178 | 137 | – |
| Cc1cccc(C)c1N1CCCNC1=S [Example 4, 1-(2,6-Dimethyl-phenyl)-3,4,5,6-tetrahydro-pyrimidine-2(1H)-thione] | 249 to 251 | – | change in vivo at 46 mg/kg (HDL cholesterol; Rattus norvegicus, feed or water, 192 h, dose 46 mg/kg mixed in diet, read-out: HDL Cholesterol Level Increase (%)): 34% |
| Cc1cc(Cl)ccc1N1CCCN(C(C)C)C1=S [Example 7, 1-(4-Chloro-2-methyl-phenyl)-3-isopropyl-3,4,5,6-tetrahydro-pyrimidine-2(1H)-thione] | 147 to 149 | 92 | – |
| Cc1ccc(Cl)cc1N1CCCN(CC(C)C)C1=S [Example 14, 1-(5-Chloro-2-methyl-phenyl)-3-isobutyl-3,4,5,6-tetrahydro-pyrimidine-2-(1H)-thione] | – | – | HDL Cholesterol Level Increase (%) (HDL cholesterol): 66% |
| C=CCN1CCCN(c2ccc(Cl)cc2C)C1=S [Example 10, 3-Allyl-1-(4-chloro-2-methyl-phenly)-3,4,5,6-tetrahydro-pyrimidine-2(1H)-thione] | – | – | HDL Cholesterol Level Increase (%) (HDL cholesterol): 57% |
| CCN1CCCN(c2ccc(Cl)cc2C)C1=S [Example 3, 1-(4-Chloro-2-methyl-phenyl)-3-ethyl-3,4,5,6-tetrahydro-pyrimidine-2(1H)-thione] | 116 to 118 | – | change in vivo at 50 mg/kg (HDL cholesterol; [1]): 152% |
| Cc1cc(Cl)ccc1N1CCCN(C)C1=S [Example 11, 1-(4-Chloro-2-methyl-phenyl)-3-methyl-3,4,5,6-tetrahydro-pyrimidine-2(1H)thione] | 143 to 145 | – | change in vivo at 50 mg/kg (HDL cholesterol; [1]): 86% |
| S=C1NCCCN1c1ccccc1 [Example 2, 1-Phenyl-3,4,5,6-tetrahydro-pyrimidine-2(1H)-thione] | 211 to 212 | – | change in vivo at 50 mg/kg (HDL cholesterol; [1]): 20% |
| C=CCN1CCCN(c2cc(Cl)ccc2C)C1=S [Example 8, 3-Allyl-1-(5-chloro-2-methyl-phenyl)-3,4,5,6-tetrahydro-pyrimidine-2(1H)-thione] | 71 to 72 | – | change in vivo at 90 mg/kg (HDL cholesterol; Rattus norvegicus, feed or water, 192 h, dose 90 mg/kg mixed in diet, read-out: HDL Cholesterol Level Increase (%)): 21% |
| CCN1CCCN(c2cc(Cl)ccc2C)C1=S [Example 5, 1-(5-Chloro-2-methyl-phenyl)-3-ethyl-3,4,5,6-tetrahydro-pyrimidine-2(1H)-thione] | 111 to 112 | 183 | – |
